From ChEMBL document CHEMBL3414527, “Engineering potent and selective analogues of GpTx-1, a tarantula venom peptide antagonist of the Na(V)1.7 sodium channel” (J Med Chem, 2015)
Bridge positions count the residues as written; N and C are the ends. Peptide text beside a SMILES is read from it.

How the values were obtained:
[1] = target: Sodium channel protein type 9 subunit alpha (Homo sapiens, UniProt Q15858); assay: Inhibition of human NaV1.7 at -140 mV holding potential by whole-cell patch clamp assay
[2] = target: Sodium channel protein type 5 subunit alpha (Homo sapiens, UniProt Q14524); assay: Inhibition of human NaV1.5 at -140 mV holding potential by whole-cell patch clamp assay
Sodium channel protein type 5 subunit alpha, sequence (Q14524 whole entry): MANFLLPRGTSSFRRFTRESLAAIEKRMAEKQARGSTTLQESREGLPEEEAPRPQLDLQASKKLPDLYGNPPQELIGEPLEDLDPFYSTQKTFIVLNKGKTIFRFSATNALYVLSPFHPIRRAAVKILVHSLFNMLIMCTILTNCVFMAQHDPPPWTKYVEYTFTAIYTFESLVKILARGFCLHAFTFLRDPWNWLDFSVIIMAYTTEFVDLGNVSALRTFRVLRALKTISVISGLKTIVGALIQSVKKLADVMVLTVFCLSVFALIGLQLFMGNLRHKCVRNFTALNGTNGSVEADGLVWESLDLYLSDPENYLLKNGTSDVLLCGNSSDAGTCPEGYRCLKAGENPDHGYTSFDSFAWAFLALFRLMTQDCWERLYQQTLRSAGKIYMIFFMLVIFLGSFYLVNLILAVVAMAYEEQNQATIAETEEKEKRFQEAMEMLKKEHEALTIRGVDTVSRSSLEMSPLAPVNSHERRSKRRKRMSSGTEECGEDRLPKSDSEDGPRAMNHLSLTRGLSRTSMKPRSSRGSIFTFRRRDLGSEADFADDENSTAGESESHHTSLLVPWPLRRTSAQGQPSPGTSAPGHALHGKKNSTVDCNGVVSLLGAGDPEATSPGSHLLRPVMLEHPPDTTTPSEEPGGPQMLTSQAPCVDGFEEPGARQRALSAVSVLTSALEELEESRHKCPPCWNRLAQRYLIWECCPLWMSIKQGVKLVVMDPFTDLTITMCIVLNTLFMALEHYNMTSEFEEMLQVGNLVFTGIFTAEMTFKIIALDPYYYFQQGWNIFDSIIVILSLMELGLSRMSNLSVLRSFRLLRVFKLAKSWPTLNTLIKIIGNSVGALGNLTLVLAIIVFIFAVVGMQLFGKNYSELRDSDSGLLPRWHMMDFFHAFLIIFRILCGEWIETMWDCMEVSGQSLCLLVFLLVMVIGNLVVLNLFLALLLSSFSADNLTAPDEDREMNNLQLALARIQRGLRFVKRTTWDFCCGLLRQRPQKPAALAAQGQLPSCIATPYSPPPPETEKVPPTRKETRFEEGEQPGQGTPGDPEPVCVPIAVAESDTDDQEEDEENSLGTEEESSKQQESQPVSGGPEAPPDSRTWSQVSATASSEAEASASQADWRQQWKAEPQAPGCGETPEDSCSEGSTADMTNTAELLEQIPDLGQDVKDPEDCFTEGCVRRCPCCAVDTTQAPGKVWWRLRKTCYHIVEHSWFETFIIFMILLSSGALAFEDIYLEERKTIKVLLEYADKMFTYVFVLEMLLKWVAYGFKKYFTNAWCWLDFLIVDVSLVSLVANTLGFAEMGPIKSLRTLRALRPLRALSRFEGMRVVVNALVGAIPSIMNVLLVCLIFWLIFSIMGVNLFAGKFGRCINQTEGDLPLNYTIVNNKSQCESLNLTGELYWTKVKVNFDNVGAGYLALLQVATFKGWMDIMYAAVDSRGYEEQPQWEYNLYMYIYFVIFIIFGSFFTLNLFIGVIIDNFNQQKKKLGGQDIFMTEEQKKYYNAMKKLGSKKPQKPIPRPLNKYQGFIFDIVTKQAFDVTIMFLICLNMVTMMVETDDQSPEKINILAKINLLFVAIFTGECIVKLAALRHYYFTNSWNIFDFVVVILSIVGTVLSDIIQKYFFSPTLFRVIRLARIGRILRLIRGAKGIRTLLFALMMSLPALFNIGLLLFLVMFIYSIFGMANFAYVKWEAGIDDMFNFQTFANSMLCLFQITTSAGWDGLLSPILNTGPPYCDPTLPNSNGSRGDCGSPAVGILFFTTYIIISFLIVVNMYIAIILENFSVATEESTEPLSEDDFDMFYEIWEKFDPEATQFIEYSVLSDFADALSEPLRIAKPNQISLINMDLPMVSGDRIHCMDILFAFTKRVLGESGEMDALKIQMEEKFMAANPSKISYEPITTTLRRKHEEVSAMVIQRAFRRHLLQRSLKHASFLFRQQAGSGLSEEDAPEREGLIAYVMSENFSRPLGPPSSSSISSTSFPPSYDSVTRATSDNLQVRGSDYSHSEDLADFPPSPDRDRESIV

Sodium channel protein type 9 subunit alpha, sequence (Q15858 whole entry): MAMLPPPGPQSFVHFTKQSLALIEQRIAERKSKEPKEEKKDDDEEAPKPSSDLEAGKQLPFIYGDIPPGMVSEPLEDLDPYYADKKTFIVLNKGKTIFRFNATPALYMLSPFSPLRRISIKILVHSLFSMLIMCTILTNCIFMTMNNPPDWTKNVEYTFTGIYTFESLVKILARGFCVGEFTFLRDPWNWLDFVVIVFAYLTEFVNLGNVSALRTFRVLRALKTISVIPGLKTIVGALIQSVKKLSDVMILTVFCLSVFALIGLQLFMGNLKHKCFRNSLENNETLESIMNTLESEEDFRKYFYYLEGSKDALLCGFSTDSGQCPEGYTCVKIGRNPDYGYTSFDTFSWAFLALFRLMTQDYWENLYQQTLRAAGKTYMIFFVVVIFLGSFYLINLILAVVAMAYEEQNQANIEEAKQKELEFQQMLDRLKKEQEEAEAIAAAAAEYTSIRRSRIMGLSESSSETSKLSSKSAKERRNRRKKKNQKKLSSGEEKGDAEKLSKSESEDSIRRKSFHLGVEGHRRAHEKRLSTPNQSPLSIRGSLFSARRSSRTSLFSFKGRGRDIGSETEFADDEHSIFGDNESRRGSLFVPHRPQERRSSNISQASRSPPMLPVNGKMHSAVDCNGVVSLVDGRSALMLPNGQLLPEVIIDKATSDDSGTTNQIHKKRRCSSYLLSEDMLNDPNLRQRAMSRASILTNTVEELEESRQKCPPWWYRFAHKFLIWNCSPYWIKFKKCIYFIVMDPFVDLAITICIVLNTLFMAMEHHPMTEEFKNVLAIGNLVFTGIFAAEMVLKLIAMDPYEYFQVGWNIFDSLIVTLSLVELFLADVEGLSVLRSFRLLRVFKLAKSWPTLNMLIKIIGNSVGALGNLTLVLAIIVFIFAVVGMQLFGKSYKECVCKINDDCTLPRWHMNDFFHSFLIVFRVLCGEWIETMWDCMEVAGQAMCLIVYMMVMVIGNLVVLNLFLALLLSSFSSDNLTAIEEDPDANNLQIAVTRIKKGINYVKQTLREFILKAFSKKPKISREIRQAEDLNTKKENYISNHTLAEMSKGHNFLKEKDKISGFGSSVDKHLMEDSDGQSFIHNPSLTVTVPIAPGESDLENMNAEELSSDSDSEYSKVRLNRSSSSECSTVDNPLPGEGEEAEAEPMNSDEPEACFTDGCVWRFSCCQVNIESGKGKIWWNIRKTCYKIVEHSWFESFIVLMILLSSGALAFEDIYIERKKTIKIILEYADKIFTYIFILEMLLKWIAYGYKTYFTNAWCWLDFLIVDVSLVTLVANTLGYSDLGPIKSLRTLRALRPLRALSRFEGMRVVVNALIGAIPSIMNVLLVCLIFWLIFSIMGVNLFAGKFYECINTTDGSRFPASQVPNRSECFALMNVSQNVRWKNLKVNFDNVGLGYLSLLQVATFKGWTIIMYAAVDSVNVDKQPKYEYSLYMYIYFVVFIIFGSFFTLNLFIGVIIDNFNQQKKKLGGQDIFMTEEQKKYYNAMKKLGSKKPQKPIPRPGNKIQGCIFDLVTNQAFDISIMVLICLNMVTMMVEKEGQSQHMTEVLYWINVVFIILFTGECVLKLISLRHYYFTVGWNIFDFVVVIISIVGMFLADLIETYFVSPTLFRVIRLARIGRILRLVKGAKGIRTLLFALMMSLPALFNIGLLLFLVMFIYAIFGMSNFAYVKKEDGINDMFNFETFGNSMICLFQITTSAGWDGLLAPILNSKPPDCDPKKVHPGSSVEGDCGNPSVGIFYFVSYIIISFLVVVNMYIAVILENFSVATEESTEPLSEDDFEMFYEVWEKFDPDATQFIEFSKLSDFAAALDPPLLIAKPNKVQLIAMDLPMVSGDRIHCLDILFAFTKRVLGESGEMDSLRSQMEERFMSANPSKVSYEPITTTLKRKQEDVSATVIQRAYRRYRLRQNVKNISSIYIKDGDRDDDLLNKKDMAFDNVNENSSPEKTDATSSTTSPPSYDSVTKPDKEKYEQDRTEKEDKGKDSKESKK

Row | SMILES | IC50 [1] [nM] | IC50 [2] [nM]
1 | CC[C@H](C)[C@@H]1NC(=O)[C@@H]2CSSC[C@@H]3NC(=O)[C@H](C(C)C)NC(=O)[C@H](CC(C)C)NC(=O)[C@H](CC(N)=O)NC(=O)[C@@H]4CCCN4C(=O)[C@H](CCCNC(=N)N)NC(=O)[C@H](CSSC[C@H](NC(=O)[C@@H](N)CC(=O)O)C(=O)N[C@@H](CC(C)C)C(=O)NCC(=O)N[C@@H](Cc4ccccc4)C(=O)N[C@@H](CCSC)C(=O)N[C@@H](CCCNC(=N)N)C(=O)N[C@@H](CCCCN)C(=O)N2)NC(=O)[C@H](CSSC[C@@H](C(=O)N[C@@H](CCCCN)C(=O)N[C@@H](Cc2ccc(O)cc2)C(=O)N[C@H](C(=O)N[C@@H](Cc2ccccc2)C(N)=O)C(C)C)NC(=O)[C@H](Cc2c[nH]c4ccccc24)NC(=O)[C@H](C)NC(=O)[C@H](Cc2cnc[nH]2)NC(=O)[C@H]([C@@H](C)O)NC(=O)[C@H](CCCNC(=N)N)NC(=O)[C@H](CO)NC3=O)NC(=O)[C@H](CCCCN)NC(=O)[C@H](CC(=O)O)NC(=O)[C@H](CC(N)=O)NC(=O)[C@H](CC(=O)O)NC(=O)[C@@H]2CCCN2C1=O (H-DCLGFMRKCIPDNDKCCRPNLVCSRTHAWCKYVF-NH2; disulfide 2-17, 9-23, 16-30) | 470 | > 5000
2 | CC[C@H](C)[C@@H]1NC(=O)[C@@H]2CSSC[C@@H]3NC(=O)[C@H](C(C)C)NC(=O)[C@H](CC(C)C)NC(=O)[C@H](CC(N)=O)NC(=O)[C@@H]4CCCN4C(=O)[C@H](CCCNC(=N)N)NC(=O)[C@H](CSSC[C@H](NC(=O)[C@@H](N)CC(=O)O)C(=O)N[C@@H](CC(C)C)C(=O)NCC(=O)N[C@@H](Cc4ccccc4)C(=O)N[C@@H](Cc4c[nH]c5ccccc45)C(=O)N[C@@H](CCCNC(=N)N)C(=O)N[C@@H](CCCCN)C(=O)N2)NC(=O)[C@H](CSSC[C@@H](C(=O)N[C@@H](CCCCN)C(=O)N[C@@H](Cc2ccc(O)cc2)C(=O)N[C@H](C(=O)N[C@@H](Cc2ccccc2)C(N)=O)C(C)C)NC(=O)[C@H](Cc2c[nH]c4ccccc24)NC(=O)[C@H](CCCCN)NC(=O)[C@H](Cc2cnc[nH]2)NC(=O)[C@H]([C@@H](C)O)NC(=O)[C@H](CCCNC(=N)N)NC(=O)[C@H](CO)NC3=O)NC(=O)[C@H](CCCCN)NC(=O)[C@H](CC(=O)O)NC(=O)[C@H](CC(N)=O)NC(=O)[C@H](CC(=O)O)NC(=O)[C@@H]2CCCN2C1=O (H-DCLGFWRKCIPDNDKCCRPNLVCSRTHKWCKYVF-NH2; disulfide 2-17, 9-23, 16-30) | 23 | 3400
3 | CC[C@H](C)[C@@H]1NC(=O)[C@@H]2CSSC[C@@H]3NC(=O)[C@H](C(C)C)NC(=O)[C@H](CC(C)C)NC(=O)[C@H](CC(N)=O)NC(=O)[C@@H]4CCCN4C(=O)[C@H](CCCNC(=N)N)NC(=O)[C@H](CSSC[C@H](NC(=O)[C@@H](N)CC(=O)O)C(=O)N[C@@H](CC(C)C)C(=O)NCC(=O)N[C@@H](Cc4ccccc4)C(=O)N[C@@H](C)C(=O)N[C@@H](CCCNC(=N)N)C(=O)N[C@@H](CCCCN)C(=O)N2)NC(=O)[C@H](CSSC[C@@H](C(=O)N[C@@H](CCCCN)C(=O)N[C@@H](Cc2ccc(O)cc2)C(=O)N[C@H](C(=O)N[C@@H](Cc2ccccc2)C(N)=O)C(C)C)NC(=O)[C@H](Cc2c[nH]c4ccccc24)NC(=O)[C@H](CCCCN)NC(=O)[C@H](Cc2cnc[nH]2)NC(=O)[C@H]([C@@H](C)O)NC(=O)[C@H](CCCNC(=N)N)NC(=O)[C@H](CO)NC3=O)NC(=O)[C@H](CCCCN)NC(=O)[C@H](CC(=O)O)NC(=O)[C@H](CC(N)=O)NC(=O)[C@H](CC(=O)O)NC(=O)[C@@H]2CCCN2C1=O (H-DCLGFARKCIPDNDKCCRPNLVCSRTHKWCKYVF-NH2; disulfide 2-17, 9-23, 16-30) | 430 | > 5000
4 | CCC[C@@H]1NC(=O)CNC(=O)[C@H](CC(C)C)NC(=O)[C@@H](NC(=O)[C@@H](N)CC(=O)O)CSSC[C@@H]2NC(=O)[C@@H]3CSSC[C@@H](C(=O)N[C@@H](CCCCN)C(=O)N[C@@H](Cc4ccc(O)cc4)C(=O)N[C@H](C(=O)N[C@@H](Cc4ccccc4)C(N)=O)C(C)C)NC(=O)[C@H](Cc4c[nH]c5ccccc45)NC(=O)[C@H](CCCCN)NC(=O)[C@H](Cc4cnc[nH]4)NC(=O)[C@H]([C@@H](C)O)NC(=O)[C@H](CCCNC(=N)N)NC(=O)[C@H](CO)NC(=O)[C@H](CSSC[C@H](NC(=O)[C@H](CCCCN)NC(=O)[C@H](CCCNC(=N)N)NC(=O)[C@H](CCSC)NC1=O)C(=O)N[C@@H]([C@@H](C)CC)C(=O)N1CCC[C@H]1C(=O)N[C@@H](CC(=O)O)C(=O)N[C@@H](CC(N)=O)C(=O)N[C@@H](CC(=O)O)C(=O)N[C@@H](CCCCN)C(=O)N3)NC(=O)[C@H](C(C)C)NC(=O)[C@H](CC(C)C)NC(=O)[C@H](CC(N)=O)NC(=O)[C@@H]1CCCN1C(=O)[C@H](CCCNC(=N)N)NC2=O | 39 | > 10000
5 | CC[C@H](C)[C@@H]1NC(=O)[C@@H]2CSSC[C@@H]3NC(=O)[C@H](C(C)C)NC(=O)[C@H](CC(C)C)NC(=O)[C@H](CC(N)=O)NC(=O)[C@@H]4CCCN4C(=O)[C@H](CCCNC(=N)N)NC(=O)[C@H](CSSC[C@H](NC(=O)[C@@H](N)CC(=O)O)C(=O)N[C@@H](CC(C)C)C(=O)NCC(=O)N[C@@H](Cc4ccccc4)C(=O)N[C@@H](CCSC)C(=O)N[C@@H](CCCNC(=N)N)C(=O)N[C@@H](CCCCN)C(=O)N2)NC(=O)[C@H](CSSC[C@@H](C(=O)N[C@@H](CCCCN)C(=O)N[C@@H](Cc2ccc(O)cc2)C(=O)N[C@H](C(=O)N[C@@H](Cc2ccccc2)C(N)=O)C(C)C)NC(=O)[C@H](Cc2c[nH]c4ccccc24)NC(=O)[C@H](CCC(=O)O)NC(=O)[C@H](Cc2cnc[nH]2)NC(=O)[C@H]([C@@H](C)O)NC(=O)[C@H](CCCNC(=N)N)NC(=O)[C@H](CO)NC3=O)NC(=O)[C@H](CCCCN)NC(=O)[C@H](CC(=O)O)NC(=O)[C@H](CC(N)=O)NC(=O)[C@H](CC(=O)O)NC(=O)[C@@H]2CCCN2C1=O (H-DCLGFMRKCIPDNDKCCRPNLVCSRTHEWCKYVF-NH2; disulfide 2-17, 9-23, 16-30) | 29 | > 10000
6 | CC[C@@H]1NC(=O)CNC(=O)[C@H](CC(C)C)NC(=O)[C@@H](NC(=O)[C@@H](N)CC(=O)O)CSSC[C@@H]2NC(=O)[C@@H]3CSSC[C@@H](C(=O)N[C@@H](CCCCN)C(=O)N[C@@H](Cc4ccc(O)cc4)C(=O)N[C@H](C(=O)N[C@@H](Cc4ccccc4)C(N)=O)C(C)C)NC(=O)[C@H](Cc4c[nH]c5ccccc45)NC(=O)[C@H](CCCCN)NC(=O)[C@H](Cc4cnc[nH]4)NC(=O)[C@H]([C@@H](C)O)NC(=O)[C@H](CCCNC(=N)N)NC(=O)[C@H](CO)NC(=O)[C@H](CSSC[C@H](NC(=O)[C@H](CCCCN)NC(=O)[C@H](CCCNC(=N)N)NC(=O)[C@H](CCSC)NC1=O)C(=O)N[C@@H]([C@@H](C)CC)C(=O)N1CCC[C@H]1C(=O)N[C@@H](CC(=O)O)C(=O)N[C@@H](CC(N)=O)C(=O)N[C@@H](CC(=O)O)C(=O)N[C@@H](CCCCN)C(=O)N3)NC(=O)[C@H](C(C)C)NC(=O)[C@H](CC(C)C)NC(=O)[C@H](CC(N)=O)NC(=O)[C@@H]1CCCN1C(=O)[C@H](CCCNC(=N)N)NC2=O | 79 | > 10000
7 | CC[C@H](C)[C@@H]1NC(=O)[C@@H]2CSSC[C@@H]3NC(=O)[C@H](C(C)C)NC(=O)[C@H](CC(C)C)NC(=O)[C@H](CC(N)=O)NC(=O)[C@@H]4CCCN4C(=O)[C@H](CCCNC(=N)N)NC(=O)[C@H](CSSC[C@H](NC(=O)[C@@H](N)CC(=O)O)C(=O)N[C@@H](CC(C)C)C(=O)NCC(=O)N[C@@H](Cc4ccccc4)C(=O)N[C@@H](Cc4ccc(O)cc4)C(=O)N[C@@H](CCCNC(=N)N)C(=O)N[C@@H](CCCCN)C(=O)N2)NC(=O)[C@H](CSSC[C@@H](C(=O)N[C@@H](CCCCN)C(=O)N[C@@H](Cc2ccc(O)cc2)C(=O)N[C@H](C(=O)N[C@@H](Cc2ccccc2)C(N)=O)C(C)C)NC(=O)[C@H](Cc2c[nH]c4ccccc24)NC(=O)[C@H](CCCCN)NC(=O)[C@H](Cc2cnc[nH]2)NC(=O)[C@H]([C@@H](C)O)NC(=O)[C@H](CCCNC(=N)N)NC(=O)[C@H](CO)NC3=O)NC(=O)[C@H](CCCCN)NC(=O)[C@H](CC(=O)O)NC(=O)[C@H](CC(N)=O)NC(=O)[C@H](CC(=O)O)NC(=O)[C@@H]2CCCN2C1=O (H-DCLGFYRKCIPDNDKCCRPNLVCSRTHKWCKYVF-NH2; disulfide 2-17, 9-23, 16-30) | 63 | > 10000
8 | CC[C@H](C)[C@@H]1NC(=O)[C@@H]2CSSC[C@@H]3NC(=O)[C@H](C(C)C)NC(=O)[C@H](CC(C)C)NC(=O)[C@H](CC(N)=O)NC(=O)[C@@H]4CCCN4C(=O)[C@H](CCCNC(=N)N)NC(=O)[C@H](CSSC[C@H](NC(=O)[C@@H](N)CC(=O)O)C(=O)N[C@@H](C)C(=O)NCC(=O)N[C@@H](Cc4ccccc4)C(=O)N[C@@H](CCSC)C(=O)N[C@@H](CCCNC(=N)N)C(=O)N[C@@H](CCCCN)C(=O)N2)NC(=O)[C@H](CSSC[C@@H](C(=O)N[C@@H](CCCCN)C(=O)N[C@@H](Cc2ccc(O)cc2)C(=O)N[C@H](C(=O)N[C@@H](Cc2ccccc2)C(N)=O)C(C)C)NC(=O)[C@H](Cc2c[nH]c4ccccc24)NC(=O)[C@H](CCCCN)NC(=O)[C@H](Cc2cnc[nH]2)NC(=O)[C@H]([C@@H](C)O)NC(=O)[C@H](CCCNC(=N)N)NC(=O)[C@H](CO)NC3=O)NC(=O)[C@H](CCCCN)NC(=O)[C@H](CC(=O)O)NC(=O)[C@H](CC(N)=O)NC(=O)[C@H](CC(=O)O)NC(=O)[C@@H]2CCCN2C1=O (H-DCAGFMRKCIPDNDKCCRPNLVCSRTHKWCKYVF-NH2; disulfide 2-17, 9-23, 16-30) | 430 | > 5000
